# Measured values taken from PMC12067145 (ACS Medicinal Chemistry Letters, 2025).
# Tests used:
# [1] = Plasma protein binding (mouse); assay type: in vitro ADME; details: pH 7.4, read-out: PPB mouse (converted)
# Experimental: (§1) 0.3% DMSO - ΔRatio of 1 µM control compound)x100
# In vitro Plasma protein binding and Brain homogenate binding: Determination of fraction unbound (f u) in plasma was conducted in vitro via equilibrium dialysis using HTDialysis (HTD) membrane plates. The top half of the plate was filled with 100 uL of Dubelco’s Phosphate Buffered Saline, pH 7.4 (DPBS). Compounds were diluted into plasma from each species (5 µM final concentration), which was aliquoted in triplicate to the ‘bottom half’ of the prepared HTD plate wells. The HTD plate was sealed and incubated for 6 hours at 37 °C. Following incubation, each well (both top and bottom halves) were transferred (20 µL) to the corresponding wells of a 96-shallow-well (V-bottom) plate. The daughter plates were then matrix-matched (DPBS side wells received equal volume of plasma, and plasma side wells received equal volume of DPBS), and extraction solution (120 µL; acetonitrile containing 50 nM carbamazepine as IS) was added to all wells of both daughter plates to precipitate protein and extract test article. The plates were then sealed and centrifuged (3500 rcf) for 10 minutes at ambient temperature. Supernatant (60 µL) from each well of the daughter plates was then transferred to the corresponding wells of new daughter plates (96-shallow-well, V bottom) containing water (Milli-Q, 60 µL/well), and the plates were sealed in preparation for LC-MS/MS analysis (see LC-MS/MS analysis method below).
# The unbound fraction (f u) was calculated following the equation below, and mean values for each species were calculated from 3 replicates. A similar approach was used to determine the degree of brain homogenate binding, which employed the same methodology and procedure with the following modifications: 1) a final compound concentration of 1 μM was used, 2) naïve rat brains were homogenized in DPBS (1:3 composition of brain: DPBS, w/w) using a Mini-Bead Beater™ machine in order to obtain brain homogenate, which was then treated in the same manner as the plasma samples in the previously described plasma protein binding assay. Fraction unbound for both plasma and brain samples was determined using Equation 4.
# [2] = Brain homogenate binding (rat); assay type: in vitro ADME
# Experimental: as §1
# In vitro Plasma protein binding and Brain homogenate binding: Determination of fraction unbound (f u) in plasma was conducted in vitro via equilibrium dialysis using HTDialysis (HTD) membrane plates. The top half of the plate was filled with 100 uL of Dubelco’s Phosphate Buffered Saline, pH 7.4 (DPBS). Compounds were diluted into plasma from each species (5 µM final concentration), which was aliquoted in triplicate to the ‘bottom half’ of the prepared HTD plate wells. The HTD plate was sealed and incubated for 6 hours at 37 °C. […]
# The unbound fraction (f u) was calculated following the equation below, and mean values for each species were calculated from 3 replicates. […] Fraction unbound for both plasma and brain samples was determined using Equation 4. […]
# The diluted fraction unbound (fu2) in brain was calculated in the same manner by using brain homogenate rather than plasma. Undiluted fraction unbound for the brain was calculated using […]
# were incubated in 100 mM potassium phosphate pH 7.4 buffer with 3 mM MgCl2 at 37 °C with constant shaking. […] The in vitro half-life (T 1/2, min, Eq. 1), intrinsic clearance (CLint, mL/min/kg, Eq. 2), and subsequent predicted hepatic clearance (CLhep, mL/min/kg, Eq. 3) were determined employing the following equations: […]
# [3] = test system: other K2P channels except TREK-2; assay: K2P channel selectivity (panel); assay type: cell-based
# Text: Herein we describe our continuing work on the K2P family of potassium ion channels with the chemical optimization of a selective and CNS penetrant series of TREK inhibitors, culminating in the discovery of ONO-TR-772 (VU6018042).
# HNC4 = HNC4 (Homo sapiens, UniProt Q9Y3Q4); assay: Cardiac ion channel MPC selectivity panel; assay type: cell-based
# Kv1.5 = Kv1.5 (Homo sapiens, UniProt P22460); assay: Cardiac ion channel MPC selectivity panel; assay type: cell-based
# hERG = hERG (Homo sapiens, UniProt Q12809); assay: Cardiac ion channel MPC selectivity panel; assay type: cell-based
# Kir2.2 = Kir2.2 (Homo sapiens, UniProt Q14500); assay: Cardiac ion channel MPC selectivity panel; assay type: cell-based
# Adenosine A1 = Adenosine A1 (Homo sapiens, UniProt P30542); assay: Eurofins lead profiling screen (radioligand binding)
# Adrenergic α1A = Adrenergic α1A (Rattus norvegicus, UniProt P43140); assay: as above
# Adrenergic α1D = Adrenergic α1D (Homo sapiens, UniProt P25100); assay: as above
# Androgen (Testosterone) = Androgen (Testosterone) (Homo sapiens, UniProt P10275); assay: as above
# Dopamine D1 = Dopamine D1 (Homo sapiens, UniProt P21728); assay: as above
# Dopamine D3 = Dopamine D3 (Homo sapiens, UniProt P35462); assay: as above
# GABAB1A = GABAB1A (Homo sapiens, UniProt Q9UBS5); assay: as above
# Glucocorticoid = Glucocorticoid (Homo sapiens, UniProt P04150); assay: as above
# Imidazoline I2, Central = assay: as above; parameters: species or system Rat
# Muscarinic M3 = Muscarinic M3 (Homo sapiens, UniProt P20309); assay: as above
# Opiate κ (OP2, KOP) = Opiate κ (OP2, KOP) (Homo sapiens, UniProt P41145); assay: as above
# Phorbol Ester = assay: as above; parameters: species or system Mouse
# hERG potassium channel = hERG potassium channel (Homo sapiens, UniProt Q12809); assay: as above
# Serotonin (5-HT2B) = Serotonin (5-HT2B) (Homo sapiens, UniProt P41595); assay: as above
# Tachykinin NK1 = Tachykinin NK1 (Homo sapiens, UniProt P25103); assay: as above
# [4] = biological target: Transporter, Dopamine (DAT) (Homo sapiens, UniProt Q01959); assay: as above
# Transporter, Dopamine (DAT), sequence (Q01959 whole entry): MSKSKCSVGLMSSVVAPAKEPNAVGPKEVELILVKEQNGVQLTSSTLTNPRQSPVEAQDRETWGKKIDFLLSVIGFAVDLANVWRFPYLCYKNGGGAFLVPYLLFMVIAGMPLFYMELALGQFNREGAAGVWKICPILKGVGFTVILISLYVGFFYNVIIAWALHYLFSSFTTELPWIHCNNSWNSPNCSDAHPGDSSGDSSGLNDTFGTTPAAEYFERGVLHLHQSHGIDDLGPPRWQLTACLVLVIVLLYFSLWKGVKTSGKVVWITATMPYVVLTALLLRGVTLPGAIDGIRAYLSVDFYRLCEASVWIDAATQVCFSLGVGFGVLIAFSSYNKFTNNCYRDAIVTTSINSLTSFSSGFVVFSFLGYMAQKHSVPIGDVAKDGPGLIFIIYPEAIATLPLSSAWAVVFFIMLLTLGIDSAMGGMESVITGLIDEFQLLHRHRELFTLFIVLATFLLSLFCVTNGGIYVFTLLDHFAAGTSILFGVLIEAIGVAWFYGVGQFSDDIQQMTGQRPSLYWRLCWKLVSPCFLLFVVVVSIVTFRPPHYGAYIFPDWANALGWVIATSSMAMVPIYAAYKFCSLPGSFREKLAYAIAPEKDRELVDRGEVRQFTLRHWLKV
# Glucocorticoid, sequence (P04150 whole entry): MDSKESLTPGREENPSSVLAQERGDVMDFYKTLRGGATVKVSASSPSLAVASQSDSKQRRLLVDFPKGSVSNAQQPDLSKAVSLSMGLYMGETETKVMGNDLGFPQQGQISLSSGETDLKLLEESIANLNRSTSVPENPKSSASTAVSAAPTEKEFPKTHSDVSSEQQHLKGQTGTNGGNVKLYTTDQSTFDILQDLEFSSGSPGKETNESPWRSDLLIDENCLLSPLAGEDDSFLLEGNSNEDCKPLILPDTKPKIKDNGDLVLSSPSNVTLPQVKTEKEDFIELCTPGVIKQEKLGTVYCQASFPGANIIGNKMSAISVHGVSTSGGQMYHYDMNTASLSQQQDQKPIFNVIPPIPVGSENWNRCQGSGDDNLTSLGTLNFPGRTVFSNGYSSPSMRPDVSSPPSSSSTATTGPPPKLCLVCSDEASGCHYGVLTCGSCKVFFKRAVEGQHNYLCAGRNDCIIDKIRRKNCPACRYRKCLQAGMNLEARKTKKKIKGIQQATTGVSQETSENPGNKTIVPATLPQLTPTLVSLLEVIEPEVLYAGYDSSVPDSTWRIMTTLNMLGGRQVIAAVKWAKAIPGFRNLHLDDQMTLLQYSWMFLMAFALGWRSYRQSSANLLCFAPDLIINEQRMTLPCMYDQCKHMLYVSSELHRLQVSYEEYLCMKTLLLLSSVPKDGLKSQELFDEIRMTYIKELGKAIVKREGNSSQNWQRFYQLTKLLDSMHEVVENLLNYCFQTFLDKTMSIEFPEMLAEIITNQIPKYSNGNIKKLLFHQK
# Adenosine A1, sequence (P30542 whole entry): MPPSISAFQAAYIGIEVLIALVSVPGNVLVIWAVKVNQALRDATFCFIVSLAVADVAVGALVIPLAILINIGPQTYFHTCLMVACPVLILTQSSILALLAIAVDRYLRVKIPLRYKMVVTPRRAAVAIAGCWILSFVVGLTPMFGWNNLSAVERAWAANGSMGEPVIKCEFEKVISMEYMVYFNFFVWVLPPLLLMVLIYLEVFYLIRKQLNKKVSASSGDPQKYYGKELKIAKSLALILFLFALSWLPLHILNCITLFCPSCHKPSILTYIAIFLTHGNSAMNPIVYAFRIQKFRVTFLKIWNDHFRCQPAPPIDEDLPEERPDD
# Kir2.2, sequence (Q14500 whole entry): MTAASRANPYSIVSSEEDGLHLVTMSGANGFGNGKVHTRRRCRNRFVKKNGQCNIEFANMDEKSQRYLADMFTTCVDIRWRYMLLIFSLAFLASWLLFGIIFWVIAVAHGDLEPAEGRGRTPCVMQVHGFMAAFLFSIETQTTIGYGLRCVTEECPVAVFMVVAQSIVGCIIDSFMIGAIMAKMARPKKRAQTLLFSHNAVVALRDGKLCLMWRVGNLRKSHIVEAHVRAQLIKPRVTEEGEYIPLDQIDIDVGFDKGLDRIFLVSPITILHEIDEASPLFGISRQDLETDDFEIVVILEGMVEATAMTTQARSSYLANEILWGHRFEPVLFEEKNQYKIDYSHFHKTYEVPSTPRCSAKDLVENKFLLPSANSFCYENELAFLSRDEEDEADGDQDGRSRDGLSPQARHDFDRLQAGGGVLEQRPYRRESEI
# HNC4, sequence (Q9Y3Q4 whole entry): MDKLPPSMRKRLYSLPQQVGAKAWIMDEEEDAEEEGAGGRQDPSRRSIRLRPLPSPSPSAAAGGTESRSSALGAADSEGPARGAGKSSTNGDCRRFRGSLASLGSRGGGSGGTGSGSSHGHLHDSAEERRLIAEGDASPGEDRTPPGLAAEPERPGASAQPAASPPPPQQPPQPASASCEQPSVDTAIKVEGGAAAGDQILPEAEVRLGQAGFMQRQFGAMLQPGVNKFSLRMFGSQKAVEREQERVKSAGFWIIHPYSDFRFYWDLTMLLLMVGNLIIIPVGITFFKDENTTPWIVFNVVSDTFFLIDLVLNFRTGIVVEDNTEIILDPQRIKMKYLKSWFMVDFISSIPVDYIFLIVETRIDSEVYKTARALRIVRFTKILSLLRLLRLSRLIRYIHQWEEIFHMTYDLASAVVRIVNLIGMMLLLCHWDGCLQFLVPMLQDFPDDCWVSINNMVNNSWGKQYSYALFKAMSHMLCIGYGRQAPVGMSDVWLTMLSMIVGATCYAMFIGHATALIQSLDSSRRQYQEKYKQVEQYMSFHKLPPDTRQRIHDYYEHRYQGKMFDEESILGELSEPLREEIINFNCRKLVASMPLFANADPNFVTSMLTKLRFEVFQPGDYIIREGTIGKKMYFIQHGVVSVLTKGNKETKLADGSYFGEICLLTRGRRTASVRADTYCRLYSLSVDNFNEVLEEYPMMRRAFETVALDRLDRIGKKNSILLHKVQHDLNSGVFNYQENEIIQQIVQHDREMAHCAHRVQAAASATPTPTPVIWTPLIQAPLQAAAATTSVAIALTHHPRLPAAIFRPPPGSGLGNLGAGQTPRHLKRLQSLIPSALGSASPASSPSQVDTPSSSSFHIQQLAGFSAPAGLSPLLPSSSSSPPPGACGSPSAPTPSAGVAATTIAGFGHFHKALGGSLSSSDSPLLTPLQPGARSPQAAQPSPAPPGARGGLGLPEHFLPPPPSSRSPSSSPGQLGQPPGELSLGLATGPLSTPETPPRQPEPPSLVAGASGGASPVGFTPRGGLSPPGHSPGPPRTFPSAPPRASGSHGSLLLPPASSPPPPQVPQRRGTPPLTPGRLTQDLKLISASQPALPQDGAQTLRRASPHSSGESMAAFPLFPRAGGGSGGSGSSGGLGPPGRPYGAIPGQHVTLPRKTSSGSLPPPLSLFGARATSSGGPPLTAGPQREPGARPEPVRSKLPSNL
# Adrenergic α1D, sequence (P25100 whole entry): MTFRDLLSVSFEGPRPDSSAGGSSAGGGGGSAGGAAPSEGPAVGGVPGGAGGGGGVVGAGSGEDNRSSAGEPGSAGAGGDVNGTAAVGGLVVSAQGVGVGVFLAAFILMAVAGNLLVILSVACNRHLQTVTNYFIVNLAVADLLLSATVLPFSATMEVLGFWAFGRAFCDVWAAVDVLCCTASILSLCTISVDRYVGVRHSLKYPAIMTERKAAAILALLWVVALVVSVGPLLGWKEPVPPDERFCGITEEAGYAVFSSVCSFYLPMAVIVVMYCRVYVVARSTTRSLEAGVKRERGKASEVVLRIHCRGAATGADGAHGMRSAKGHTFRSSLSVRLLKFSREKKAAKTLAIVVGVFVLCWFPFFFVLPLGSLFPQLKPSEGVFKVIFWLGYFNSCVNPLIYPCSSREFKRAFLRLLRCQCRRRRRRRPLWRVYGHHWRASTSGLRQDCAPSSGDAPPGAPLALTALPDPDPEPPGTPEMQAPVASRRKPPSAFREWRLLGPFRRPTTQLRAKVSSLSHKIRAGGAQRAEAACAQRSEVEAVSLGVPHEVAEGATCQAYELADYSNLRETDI
# Dopamine D1, sequence (P21728 whole entry): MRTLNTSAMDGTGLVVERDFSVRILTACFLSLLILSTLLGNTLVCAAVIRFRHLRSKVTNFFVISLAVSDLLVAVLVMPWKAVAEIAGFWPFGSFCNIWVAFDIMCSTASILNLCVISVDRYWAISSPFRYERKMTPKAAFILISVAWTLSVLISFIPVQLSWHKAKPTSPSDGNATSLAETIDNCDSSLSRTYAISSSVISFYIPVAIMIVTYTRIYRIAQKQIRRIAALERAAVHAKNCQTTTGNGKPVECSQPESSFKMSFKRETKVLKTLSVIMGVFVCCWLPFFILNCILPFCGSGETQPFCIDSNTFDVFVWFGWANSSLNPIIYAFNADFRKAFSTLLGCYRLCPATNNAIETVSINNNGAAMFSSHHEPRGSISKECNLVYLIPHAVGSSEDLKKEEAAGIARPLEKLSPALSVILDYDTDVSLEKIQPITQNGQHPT
# Serotonin (5-HT2B), sequence (P41595 whole entry): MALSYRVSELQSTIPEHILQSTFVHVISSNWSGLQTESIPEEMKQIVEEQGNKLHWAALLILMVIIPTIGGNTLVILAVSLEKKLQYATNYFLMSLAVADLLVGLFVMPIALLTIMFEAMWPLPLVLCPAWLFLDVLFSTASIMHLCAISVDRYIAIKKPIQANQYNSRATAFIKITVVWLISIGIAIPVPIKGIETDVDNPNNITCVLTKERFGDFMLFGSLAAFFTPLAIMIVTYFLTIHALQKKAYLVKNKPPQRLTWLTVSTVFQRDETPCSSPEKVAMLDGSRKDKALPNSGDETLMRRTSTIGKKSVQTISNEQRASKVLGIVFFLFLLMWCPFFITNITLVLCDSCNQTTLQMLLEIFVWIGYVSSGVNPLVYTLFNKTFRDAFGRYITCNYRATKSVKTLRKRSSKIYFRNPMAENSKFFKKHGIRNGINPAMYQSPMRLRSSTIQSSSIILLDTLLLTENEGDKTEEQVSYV
structure (smiles),measurement,setting,value
Cc1cc(C#Cc2ccc(F)cc2)cnc1NC(=O)c1cc(NC(=O)OC(C)(C)C)ccc1Cl [Compound 14c],"fraction unbound at 6 h, 5 µM",[1],0.016
same,brain homogenate binding rat,[2],> 99.9%
same,activity versus other K2P channels except TREK-2,[3],> 10 µM
same,"% at 10 μM, HNC4",HNC4,< 50%
same,"% at 10 μM, Kv1.5",Kv1.5,< 50%
same,"% at 10 μM, hERG",hERG,< 50%
same,"% at 10 μM, Kir2.2",Kir2.2,52%
O=C(NCc1ccc(OC(F)(F)F)cc1F)c1ccc2ncnn2c1 [ONO-2920632],inhibition at 10 µM,Adenosine A1,2%
same,inhibition at 10 µM,Adrenergic α1A,40%
same,inhibition at 10 µM,Adrenergic α1D,26%
same,inhibition at 10 µM,Androgen (Testosterone),7%
same,inhibition at 10 µM,Dopamine D1,8%
same,inhibition at 10 µM,Dopamine D3,12%
same,inhibition at 10 µM,GABAB1A,0%
same,inhibition at 10 µM,Glucocorticoid,-4%
same,% Inhibition at 10 µM,"Imidazoline I2, Central",10%
same,inhibition at 10 µM,Muscarinic M3,7%
same,inhibition at 10 µM,"Opiate κ (OP2, KOP)",9%
same,% Inhibition at 10 µM,Phorbol Ester,-7%
same,inhibition at 10 µM,hERG potassium channel,39%
same,inhibition at 10 µM,Serotonin (5-HT2B),31%
same,inhibition at 10 µM,Tachykinin NK1,13%
same,inhibition at 10 µM,[4],23%
